Test results reported in PMC9126943, “ADAMTS4-specific MR probe to assess aortic aneurysms in vivo using synthetic peptide libraries” (Nature Communications, 2022).
“Also recorded” adds a separate entry of the source. Where a SMILES comes first, the peptide text is derived from it. Bridges are numbered along the chain shown (N, C = ends). The star is where a group is joined. Cy5(nonsulfonated) = CN1C(=CC=CC=CC2=[N+](CCCCCC(=O)*)c3ccccc3C2(C)C)C(C)(C)c2ccccc21; DOTA = O=C(O)CN1CCN(CC(=O)O)CCN(CC(=O)*)CCN(CC(=O)O)CC1

How the values were obtained:
ADAMTS5 = target: T1, ADAMTS5 (Homo sapiens, UniProt Q9UNA0); assay: MST instrument, ligand-dependent fluorescence change, Cy5-labeled peptide vs ADAMTS5; type: binding; conditions: Cy5-labeled peptide 3 nM, ADAMTS5 starting concentration 2.46 µM, n = 3
T1 construct: His; purchased BioTeZ Berlin-Buch GmbH 30 400 502
T1 sequence (Q9UNA0 262-930): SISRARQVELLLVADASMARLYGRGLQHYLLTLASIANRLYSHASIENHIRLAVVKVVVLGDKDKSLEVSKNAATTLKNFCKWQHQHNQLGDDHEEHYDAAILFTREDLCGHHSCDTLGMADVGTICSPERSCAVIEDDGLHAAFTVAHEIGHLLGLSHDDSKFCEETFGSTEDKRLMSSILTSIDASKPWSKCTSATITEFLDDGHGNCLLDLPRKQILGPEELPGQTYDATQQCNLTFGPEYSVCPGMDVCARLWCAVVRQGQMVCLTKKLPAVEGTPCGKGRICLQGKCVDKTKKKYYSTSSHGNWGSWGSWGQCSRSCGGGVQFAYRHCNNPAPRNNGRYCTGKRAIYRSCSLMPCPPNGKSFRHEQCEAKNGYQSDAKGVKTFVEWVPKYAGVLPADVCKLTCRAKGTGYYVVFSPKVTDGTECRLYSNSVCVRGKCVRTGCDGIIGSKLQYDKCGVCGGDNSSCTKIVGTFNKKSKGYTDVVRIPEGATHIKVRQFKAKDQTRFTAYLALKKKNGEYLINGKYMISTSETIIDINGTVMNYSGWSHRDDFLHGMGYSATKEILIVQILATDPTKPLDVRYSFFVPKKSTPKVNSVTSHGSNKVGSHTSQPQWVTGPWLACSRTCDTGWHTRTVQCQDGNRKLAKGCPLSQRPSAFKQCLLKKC
Experimental: Microscale thermophoresis (MST) was performed on a Monolith Pico (NanoTemper, Munich, Germany). The Cy5-labeled peptides were diluted into the MST buffer (150 mM NaCl, 50 mM TRIS-HCl, 5 mM CaCl2, and Tween-20) to reach a dilution of 6 nM. ADAMTS4, ADAMTS5, and ADAMTS1 were directly used with the supplied concentration. For ADAMTS4, the starting concentration was 4.96 µM, while for ADAMTS1 it was 4.88 µM and for ADAMTS5 it was 2.46 µM. Since we saw a loss of binding after centrifugation, the use of protein concentrators were inappropriate. 20 µl of the protein solutions were transferred into a PCR tube. 10 µl of this first vial was transferred into a second vial and mixed by pipetting with 10 µl of the MST buffer. […] The capillaries were transferred into the Monolith tray and measured with 10% excitation power on the pico-red excitation on high MST power at 25 °C. […] We detected a ligand-dependent fluorescence change for some of the systems. We checked for ADAMTS4 and the ADAMTS4-specific-Cy5-labeled probe via a saturation test for specifying the ligand-dependent fluorescence change. […] The samples were heated at 95 °C for 5 min and measured in the MST. The fluorescence difference between the concentrations was afterward at the same level. Each measurement was repeated three times independently and the binding constant was calculated by merging all three measurements. […]

[1] = Metabolic stability in human plasma by HPLC; type: in vitro ADME; conditions: lyophilized human plasma 1 g in 10 ml water, 0.2 µm filtered; 8 mg probe in 2 ml plasma; 37 °C, 700 rpm; 5 min to 24 h; HPLC C18, absorbance 220 nm, blank subtracted
Experimental: 1 g of lyophilized human plasma was dissolved in 10 ml ultrapure water and mixed for 12 h at 4 °C. Afterward, the plasma was filtered with a pore size of 0.2 µm, and the filtrate was mixed for 1 h at 37 °C. 2 ml of plasma was mixed with 8 mg of the ADAMTS4-specific probe, while 2 ml plasma was kept blank. Both samples were shaken at 37 °C at 700 rpm. After different time points (5 min, 30 min, 45 min, 1 h, 2 h, […], 18 h, and 24 h) respectively, 200 µl of both samples were removed and 200 µl guanidium HCl (6 M, pH 3) was added to each sample and mixed for 30 min at RT. Afterward, 1 ml EtOH was added, and the samples were shaken at 4 °C for 48 h. The samples were centrifuged at 4 °C, 22640 x g for 15 min, and 1 ml of the supernatant was taken. The solvent was removed with the Speedvac (Martin Christ RVC 2-18 CDplus) at 37 °C. 250 µl ultrapure water + 0.2% TFA were added into each sample and shaken overnight. The samples were centrifuged at 4 °C, 22640 x g for 15 min, and 200 µl were transferred into MS vials. The samples were measured with an AdvanceBio Peptide Map column (C18; Core-shell; length 15 cm; ID 2.1 mm) on a 1260 Infinity Bioinert Quaternary LC System (Agilent Technologies). The following conditions were used: 2 µl injections volume, flowrate 0.4 ml/min, 0–30 min 99% A to 85% A (A: ultrapure water with 0.2% TFA; B ACN with 0.16% TFA). […]

Structure (SMILES) | binding to ADAMTS5, in words (ADAMTS5) | degradation in human plasma within 24 h [1]
C[N+]1=C(C=CC=CC=C2N(CCCCCC(=O)NCCCC[C@H](NC(=O)CNC(=O)CNC(=O)[C@H](CO)NC(=O)CNC(=O)CNC(=O)[C@H](CO)NC(=O)[C@@H]3CSSC[C@H](N)C(=O)N[C@@H](CO)C(=O)N[C@@H](CCCNC(=N)N)C(=O)N[C@@H](CCCNC(=N)N)C(=O)NCC(=O)N3)C(=O)NCC(N)=O)c3ccccc3C2(C)C)C(C)(C)c2ccccc21 [Cy5-labeled probe] (H-CSRRGCSGGSGGK(Cy5(nonsulfonated))G-NH2; disulfide 1-6; N-terminus and C-terminus assumed) | determination of the binding constant is not possible; also recorded: plateau was not reached; also recorded: a ligand dependent fluorescence change occurs | –
N=C(N)NCCC[C@@H]1NC(=O)[C@H](CCCNC(=N)N)NC(=O)[C@H](CO)NC(=O)[C@@H](N)CSSC[C@@H](C(=O)N[C@@H](CO)C(=O)NCC(=O)NCC(=O)N[C@@H](CO)C(=O)NCC(=O)NCC(=O)N[C@@H](CCCCNC(=O)CN2CCN(CC(=O)O)CCN(CC(=O)O)CCN(CC(=O)O)CC2)C(=O)NCC(N)=O)NC(=O)CNC1=O (Gd complex, metal not drawn) [ADAMTS4-specific probe] (H-CSRRGCSGGSGGK(DOTA)G-NH2; disulfide 1-6) | – | No relevant degradation; also recorded: No relevant biodegradation
